Earlier results as cited in patent US20110021470A1, “METHODS FOR TREATING CANCER COMPRISING THE ADMINISTRATION OF A VITAMIN D COMPOUND AND AN ADDITIONAL THERAPEUTIC AGENT, AND COMPOSITIONS CONTAINING THE SAME” (Cougar Biotechnology, Inc., priority 2006, published 2011).

Assays:
[1] = test system: cell growth and differentiation
[2] = in vivo
[3] = oral lipid formulations (medium chain triglyceride, long chain triglyceride) compared with a formulation containing propylene glycol
[4] = in vivo; remark: listed apart in the source

For “1(S),3(R)-dihydroxy-20(R)-(5′-ethyl-5′-hydroxyhepta-1′(E),3′(E)-dien-1′-yl)-9,10-secopregna-5(Z),7(E),-10(19)-triene [Seocalcitol]”, the anti-proliferative activity [1] is given as “strong”, the “potency in regulation of cell growth and differentiation relative to 1α,25-dihydroxycholecalciferol” value ([1]; in vitro and in vivo, versus 1α,25-dihydroxycholecalciferol) is given as 50-200 times more potent and the calcemic activity [2] is given as “low”. The “calcemic activity relative to 1α,25-dihydroxycholecalciferol” value ([2]; versus 1α,25-dihydroxycholecalciferol) was “approximately 50 % weaker”, the bioavailability of seocalcitol [3] was “twofold higher” and the biological half-life [4] was “suitable for systematic use”.
